Measurements: PMC6272861, “In Vitro Inhibition of Human UDP-Glucuronosyl-Transferase (UGT) Isoforms by Astaxanthin, β-Cryptoxanthin, Canthaxanthin, Lutein, and Zeaxanthin: Prediction of in Vivo Dietary Supplement-Drug Interactions” (Molecules, 2016)
Where two headings read alike, the source gives them in different places.

Columns and labels:
[1] = molecular target: T1, UGT1A3 (Homo sapiens, UniProt P35503); assay: Inhibition of UGT1A3 (chenodeoxycholic acid 24-acyl-β-D-glucuronidation) in human liver microsomes; conditions: for Residual UGT1A3 enzyme activity: highest tested concentration 50 μM
T1 sequence (P35503 29-534): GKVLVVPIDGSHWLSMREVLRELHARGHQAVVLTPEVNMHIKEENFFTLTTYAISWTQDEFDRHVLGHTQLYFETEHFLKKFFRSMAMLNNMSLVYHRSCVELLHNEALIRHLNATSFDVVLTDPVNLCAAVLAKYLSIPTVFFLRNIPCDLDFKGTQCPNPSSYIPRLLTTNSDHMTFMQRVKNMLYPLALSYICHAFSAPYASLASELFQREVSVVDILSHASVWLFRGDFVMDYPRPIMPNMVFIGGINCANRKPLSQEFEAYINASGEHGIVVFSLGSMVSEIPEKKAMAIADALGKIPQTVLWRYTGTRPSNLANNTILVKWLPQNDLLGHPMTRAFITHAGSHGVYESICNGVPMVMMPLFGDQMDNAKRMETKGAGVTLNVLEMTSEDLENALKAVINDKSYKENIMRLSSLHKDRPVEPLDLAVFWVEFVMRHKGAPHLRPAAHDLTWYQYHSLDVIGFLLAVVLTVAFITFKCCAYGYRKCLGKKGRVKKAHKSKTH
Description: (§1) The formation activities of β-estradiol-3-glucuronide, chenodeoxycholic acid 24-acyl-β-D-glucuronide, trifluoperazine-N-glucuronide, imipramine-N-β-D-glucuronide, serotonin-O-glucuronide, propofol-O-glucuronide, and zidovudine-5′-glucuronide were determined to probe the activities of UGT1A1, UGT1A3, UGT1A4, UGT1A6, UGT1A9 and UGT2B7, respectively, in human liver microsomes.
(§2) In brief, the 90-µL incubation mixture, including pooled human liver microsomes (final concentration 0.25 mg/mL), 100 mM Tris buffer, 25 µg/mL alamethicin, 5 mM MgCl2, the UGT-selective substrates, and five xanthophylls (0–50 μM), were pre-incubated for 30 min on ice to allow formation of alamethicin pores. Reac2345tions were initiated by the addition of 10 μL of UDPGA (5 mM) to a final reaction volume of 0.1 mL and incubated at 37 °C for 60 min (except 30 min for UGT1A9) in a shaking water bath. After incubation, each reaction was stopped by adding 50 μL of ice-cold acetonitrile containing chlorpropamide (300 ng/mL) or theophylline (30 μg/mL or 300 μg/mL) as an internal standard. The mixtures were then centrifuged (13,000 g for 15 min at 4 °C) and 5-µL aliquots of the supernatants were injected into an LC-MS/MS system. […] All incubations were performed in triplicate, and mean values were used for analysis.
(§3) Chromatographic separations were performed on an Agilent Poroshell 120 EC-C18 column (50 mm × 4.6-mm i.d.; 2.7-μm particle size; Agilent Technologies) to quantify β-estradiol-3-glucuronide (UGT1A1), chenodeoxycholic acid 24-acyl-β-D-glucuronide (UGT1A3), trifluoperazine-N-glucuronide (UGT1A4), propofol-O-glucuronide (UGT1A9), zidovudine-5′-glucuronide (UGT2B7), and 4-methylumbelliferyl glucuronide (UGT2B15); an Agilent Poroshell 120 EC-C18 column (100 × 4.6-mm i.d.; 2.7-mm particle size) was used for quantification of serotonin-O-glucuronide (UGT1A6). The isocratic mobile phase consisted of distilled water (A) and acetonitrile containing 0.1% formic acid (B) at a ratio (v/v) of 10:90 for chenodeoxycholic acid 24-acyl-β-D-glucuronide, 30:70 for trifluoperazine-N-glucuronide and zidovudine-5′-glucuronide, 50:50 for propofol-O-glucuronide and 4-methylumbelliferyl glucuronide, 65:35 for β-estradiol-3-glucuronide, and 90:10 for serotonin-O-glucuronide, at a flow rate of 0.5 mL/min. The total run time was 4.0 min per sample for each metabolite, with the exception of serotonin-O-glucuronide (6.0 min). Peak areas for all of the analytes were automatically integrated using Analyst software (version 1.5.2, Applied Biosystems, Foster City, CA, USA).
(§4) The IC50 values were calculated via nonlinear least-squares regression analysis from plots of the logarithms of inhibitor concentration vs. the residual percentages of activities after inhibition, using WinNonlin (ver. 4.0; Pharsight, Mountain View, CA, USA).

[2] = molecular target: T2, UGT2B15 (Homo sapiens, UniProt P54855); assay: Inhibition of UGT2B15 (4-methylumbelliferyl glucuronidation) in recombinant human UGT2B15 supersomes; type: in vitro ADME
T2 construct: purchased Corning Life Sciences
T2 sequence (P54855 24-530): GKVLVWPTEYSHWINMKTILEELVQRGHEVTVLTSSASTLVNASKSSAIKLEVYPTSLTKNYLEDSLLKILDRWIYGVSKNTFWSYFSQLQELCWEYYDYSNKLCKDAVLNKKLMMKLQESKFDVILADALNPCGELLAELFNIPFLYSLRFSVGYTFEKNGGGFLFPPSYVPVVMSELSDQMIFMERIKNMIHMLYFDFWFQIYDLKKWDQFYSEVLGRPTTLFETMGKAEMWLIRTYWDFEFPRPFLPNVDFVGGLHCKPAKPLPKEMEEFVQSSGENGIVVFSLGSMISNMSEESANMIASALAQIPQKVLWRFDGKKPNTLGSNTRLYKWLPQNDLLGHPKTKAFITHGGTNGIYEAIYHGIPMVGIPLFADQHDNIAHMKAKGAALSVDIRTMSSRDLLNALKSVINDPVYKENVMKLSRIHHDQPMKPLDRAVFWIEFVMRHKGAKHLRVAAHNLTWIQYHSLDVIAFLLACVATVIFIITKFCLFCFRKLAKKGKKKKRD
Description: Although S-oxazepam is a typical substrate of UGT2B15 of human liver microsomes, authentic S-oxazepam and the corresponding glucuronide are not commercially […]. Thus, the inhibition of AS, βC, CA, LU, and ZE on the UGT2B15 activity was assessed using 4-methylumbelliferone as the nonspecific probe substrate for all UGTs except UGT1A4 [34] in recombinant human UGT2B15 supersomes.
The reaction was initiated by addition of 10 µL 5 mM UDPGA (to 100 µL total volume) followed by incubation for 120 min at 37 °C in a shaking water bath. Reactions were stopped by addition of 50 µL of ice-cold acetonitrile containing chlorpropamide (300 ng/mL) as an internal standard, and they were chilled and centrifuged (13,000 g, 15 min, 4 °C). An aliquot of 5 μL of supernatant was injected into an LC-MS/MS system. Additionally, identical parallel incubation samples containing a known UGT2B15 inhibitor amitriptyine (0–200 μM) was included as a positive control for UGT2B15.
For visual inspection, data were presented as Dixon plots.

[3] = molecular target: T3, UGT2B7 (Homo sapiens, UniProt P16662); assay: Inhibition of UGT2B7 (zidovudine-5′-glucuronidation) in human liver microsomes; conditions: for Residual UGT2B7 enzyme activity: highest tested concentration 50 μM
T3 sequence (P16662 24-529): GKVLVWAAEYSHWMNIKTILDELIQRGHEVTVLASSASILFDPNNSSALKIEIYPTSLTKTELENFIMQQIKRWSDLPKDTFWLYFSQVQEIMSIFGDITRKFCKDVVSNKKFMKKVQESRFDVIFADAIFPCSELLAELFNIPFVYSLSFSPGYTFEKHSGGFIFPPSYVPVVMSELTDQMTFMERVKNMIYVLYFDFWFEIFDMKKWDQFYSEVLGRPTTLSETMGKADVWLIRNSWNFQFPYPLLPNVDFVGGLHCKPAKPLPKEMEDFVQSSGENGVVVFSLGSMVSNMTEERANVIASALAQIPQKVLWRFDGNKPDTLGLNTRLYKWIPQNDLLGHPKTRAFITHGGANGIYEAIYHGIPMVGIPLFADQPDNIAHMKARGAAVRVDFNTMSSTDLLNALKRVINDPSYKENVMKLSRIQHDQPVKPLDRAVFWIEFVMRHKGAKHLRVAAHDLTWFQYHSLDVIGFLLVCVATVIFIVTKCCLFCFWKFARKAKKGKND
Description: as §1, §2, §3, §4

[4] = molecular target: T4, UGT1A9 (Homo sapiens, UniProt O60656); assay: Inhibition of UGT1A9 (propofol-O-glucuronidation) in human liver microsomes; conditions: for Residual UGT1A9 enzyme activity: highest tested concentration 50 μM
T4 sequence (O60656 26-530): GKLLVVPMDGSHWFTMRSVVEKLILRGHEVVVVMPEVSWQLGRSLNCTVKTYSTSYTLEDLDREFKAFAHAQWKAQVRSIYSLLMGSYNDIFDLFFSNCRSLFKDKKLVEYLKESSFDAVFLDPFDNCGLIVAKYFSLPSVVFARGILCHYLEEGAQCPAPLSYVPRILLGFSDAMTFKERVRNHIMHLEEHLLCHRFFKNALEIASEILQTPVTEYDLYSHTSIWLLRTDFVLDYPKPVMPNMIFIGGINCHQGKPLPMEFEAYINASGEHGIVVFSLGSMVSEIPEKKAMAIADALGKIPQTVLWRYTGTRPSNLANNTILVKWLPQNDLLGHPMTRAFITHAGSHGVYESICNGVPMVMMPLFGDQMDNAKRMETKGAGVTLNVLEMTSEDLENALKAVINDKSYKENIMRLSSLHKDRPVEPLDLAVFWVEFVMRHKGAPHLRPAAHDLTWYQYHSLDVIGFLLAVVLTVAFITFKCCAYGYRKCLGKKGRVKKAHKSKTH
Description: as §1, §2, §3, §4

[5] = read-out: IC50 towards UGT1A3, human liver microsomes, 15 μM chenodeoxycholic acid, mean ± SD of triplicate
[6] = recombinant UGT2B15 supersomes, 250 μM 4-methylumbelliferone, mean ± SD of triplicate, read-out: IC50 towards UGT2B15
[7] = read-out: IC50 towards UGT2B7, human liver microsomes, 100 μM zidovudine, mean ± SD of triplicate
[8] = read-out: IC50 towards UGT1A9, human liver microsomes, 100 μM propofol, mean ± SD of triplicate

| IC50 [1] | Residual UGT1A3 enzyme activity ([1]; human liver microsomes) | IC50 [2] | IC50 [3] | Residual UGT2B7 enzyme activity ([3]; human liver microsomes) | IC50 [4] | Residual UGT1A9 enzyme activity ([4]; human liver microsomes) | Compound | IC50 [1, 5] | IC50 [2, 6] | IC50 [3, 7] | IC50 [4, 8] |
| --- | --- | --- | --- | --- | --- | --- | --- | --- | --- | --- | --- |
| > 50 µM | greater than 80% | > 50 µM | > 50 µM | greater than 80% | > 50 µM | greater than 80% | CC1=C(/C=C/C(C)=C/C=C/C(C)=C/C=C/C=C(C)/C=C/C=C(C)/C=C/C2=C(C)C(=O)[C@@H](O)CC2(C)C)C(C)(C)C[C@H](O)C1=O [AS, astaxanthin] | – | – | – | – |
| > 50 µM | 64.2% | > 50 µM | > 50 µM | greater than 80% | > 50 µM | greater than 80% | CC1=C(/C=C/C(C)=C/C=C/C(C)=C/C=C/C=C(C)/C=C/C=C(C)/C=C/C2=C(C)C[C@@H](O)CC2(C)C)C(C)(C)C[C@H](O)C1 [ZE, zeaxanthin] | – | – | – | – |
| – | – | – | – | – | – | – | CC1=C(/C=C/C(C)=C/C=C/C(C)=C/C=C/C=C(C)/C=C/C=C(C)/C=C/C2=C(C)C(=O)CCC2(C)C)C(C)(C)CCC1=O [CA, canthaxanthin] | 41.2 ± 3.14 µM | > 50 µM | > 50 µM | > 50 µM |
| – | – | – | – | – | – | – | CC1=C(/C=C/C(C)=C/C=C/C(C)=C/C=C/C=C(C)/C=C/C=C(C)/C=C/C2=C(C)C[C@@H](O)CC2(C)C)C(C)(C)CCC1 [βC, β-cryptoxanthin] | 28.3 ± 4.4 µM | > 50 µM | > 50 µM | > 50 µM |
| > 50 µM | – | > 50 µM | > 50 µM | – | > 50 µM | – | CC1=C[C@H](O)CC(C)(C)[C@H]1/C=C/C(C)=C/C=C/C(C)=C/C=C/C=C(C)/C=C/C=C(C)/C=C/C1=C(C)C[C@@H](O)CC1(C)C [LU, lutein] | – | – | – | – |
